The record followed here is PMC7988029, “Growth optimization and identification of an ω-transaminase by a novel native PAGE activity staining method in a Bacillus sp. strain BaH isolated from Iranian soil” (AMB Express, 2021).

Like-named read-outs stand apart in the source and are kept apart here.

This test has as its system T1, BaH-ω-TA.
T1 construct: gene omega-TA; native enzyme in unpurified crude extract of the wild-type strain; one activity band on native PAGE
In words: acetophenone formation by HPLC, Michaelis-Menten non-linear fit. The class given is biochemical, Bacillus sp. BaH. Conditions: 0.1 mM PLP, Britton-Robinson buffer pH 6, 15 % DMSO, 35 °C, 1 mg/mL crude extract, read-out: apparent Km.

Take `C[C@H](N)c1ccccc1` [(S)-MBA]: for the setting “60 mM pyruvate”, the Km was determined as 2.6 mM.
For the compound `CC(=O)C(=O)O` [pyruvate], the Km (70 mM (S)-MBA) is 17.3 mM.

What is called Km is the substrate concentration at which the rate is half of its maximum.
